Measurements taken from the supplement of paper PMC10307832.

How the values were obtained:
Assay in all cases: relative viability (nuclei count vs DMSO), 5 days (fraction); higher = more cells survive
[1] = compound: CCC1=CN=CN=C1N2CCN(CC2)CC3=NC4=C(N3)C=C(C=C4)C(F)(F)F + C[C@@H](Oc1cc(-c2cnn(C3CCNCC3)c2)cnc1N)c1c(Cl)ccc(F)c1Cl [Crizotinib] (partner 1 µM)
Summary of the method: (§1)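 Values are medians from duplicate plates. Each reflects relative viability, defined as the nuclei count of treated wells over that of vehicle wells. Lung cancer cell lines in 1536-well plates were pin-tool dosed one day after seeding with one drug alone or with a fixed anchor-drug dose plus five library-drug doses (not always all listed) in √10 steps, then fixed, stained and imaged at 4× after 5 days.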

[2] = compound: CCC1=CN=CN=C1N2CCN(CC2)CC3=NC4=C(N3)C=C(C=C4)C(F)(F)F + C[C@]1(O)C[C@@H](c2nc(-c3ccc4ccc(-c5ccccc5)nc4c3)c3c(N)nccn32)C1 [Linsitinib] (partner 1 µM)
Summary of the method: as §1

[3] = compound: CCC1=CN=CN=C1N2CCN(CC2)CC3=NC4=C(N3)C=C(C=C4)C(F)(F)F + Cc1nc(NC(=O)N2CCC[C@H]2C(N)=O)sc1-c1ccnc(C(C)(C)C(F)(F)F)c1 [Alpelisib] (partner 2 µM)
Summary of the method: as §1

[4] = compound: CCC1=CN=CN=C1N2CCN(CC2)CC3=NC4=C(N3)C=C(C=C4)C(F)(F)F + O=C(c1cc(Cc2n[nH]c(=O)c3ccccc23)ccc1F)N1CCN(C(=O)C2CC2)CC1 [Olaparib] (partner 8 µM)
Summary of the method: as §1

Cell Line | relative viability ([1]; first compound 0.04 µM) | relative viability ([1]; first compound 0.1265 µM) | relative viability ([1]; first compound 0.4 µM) | relative viability ([1]; first compound 1.265 µM) | relative viability ([1]; first compound 4 µM) | relative viability ([2]; first compound 0.04 µM) | relative viability ([2]; first compound 0.1265 µM) | relative viability ([2]; first compound 0.4 µM) | relative viability ([2]; first compound 1.265 µM) | relative viability ([2]; first compound 4 µM) | relative viability ([3]; first compound 0.04 µM) | relative viability ([3]; first compound 0.1265 µM) | relative viability ([3]; first compound 0.4 µM) | relative viability ([3]; first compound 1.265 µM) | relative viability ([3]; first compound 4 µM) | relative viability ([4]; first compound 0.04 µM) | relative viability ([4]; first compound 0.1265 µM) | relative viability ([4]; first compound 0.4 µM) | relative viability ([4]; first compound 1.265 µM) | relative viability ([4]; first compound 4 µM)
NCI-H1437 | 0.969 | 0.799 | 0.964 | 0.903 | 0.752 | 1.03 | 0.967 | 0.896 | 0.836 | 0.634 | 1 | 0.93 | 0.831 | 0.795 | 0.855 | 0.597 | 0.595 | 0.575 | 0.544 | 0.505
NCI-H1651 | 0.889 | 0.839 | 0.845 | 0.837 | 0.913 | 0.96 | 1.09 | 0.934 | 0.938 | 0.944 | 1.01 | 0.961 | 0.876 | 0.818 | 0.907 | 0.206 | 0.179 | 0.175 | 0.19 | 0.17
NCI-H1666 | 0.974 | 0.916 | 1.1 | 0.849 | 1.03 | 0.726 | 0.832 | 0.845 | 0.913 | 0.821 | 0.877 | 0.913 | 0.903 | 0.851 | 0.95 | 0.743 | 0.729 | 0.772 | 0.727 | 0.71
NCI-H1703 | 1.07 | 0.697 | 0.775 | 0.858 | 1.23 | 0.595 | 0.669 | 0.851 | 0.473 | 0.771 | 0.462 | 0.401 | 0.358 | 0.25 | 0.535 | 0.511 | 0.536 | 0.397 | 0.332 | 0.396
NCI-H1734 | 0.655 | 0.679 | 0.751 | – | 1.12 | 0.971 | 0.836 | 0.946 | – | 0.877 | 0.686 | 0.754 | 0.795 | – | 0.676 | 0.63 | 0.609 | 0.587 | 0.584 | 0.557
NCI-H1755 | 0.963 | 0.809 | 0.948 | 0.89 | 1.06 | 1.02 | 0.938 | 0.955 | 0.948 | 0.944 | 0.881 | 0.913 | 0.923 | 0.862 | 0.895 | 0.915 | 0.903 | 0.856 | 0.82 | 0.75
NCI-H1792 | 0.881 | 0.875 | 0.94 | 0.958 | 1.01 | 0.522 | 0.543 | 0.497 | 0.424 | 0.511 | 0.696 | 0.685 | 0.641 | 0.503 | 0.65 | 0.895 | 0.406 | 0.369 | – | 0.399
NCI-H1915 | 0.916 | 0.878 | 0.85 | 0.934 | 1.03 | 1.15 | 1.09 | 1.09 | 1.04 | 1.12 | 1.1 | 1.03 | 1.06 | 0.957 | 1.03 | 0.27 | 0.248 | 0.252 | 0.268 | 0.249
NCI-H1944 | 1.21 | 0.988 | 1.13 | – | 1.23 | 1.36 | 1.21 | 1.08 | – | 0.99 | 0.993 | 0.827 | 0.778 | – | 0.802 | 0.622 | 0.395 | 0.378 | 0.344 | 0.361
NCI-H1975 | 1.08 | 0.983 | 0.968 | 1.11 | 1.04 | 1.07 | 0.966 | 0.898 | 0.901 | 0.921 | 0.641 | 0.633 | 0.605 | 0.61 | 0.527 | 0.9 | 0.729 | 0.735 | 0.718 | 0.667
NCI-H1993 | 0.835 | 0.813 | 0.883 | 0.873 | 0.856 | 0.81 | 0.799 | 0.753 | 0.72 | 0.838 | 0.593 | 0.623 | 0.743 | 0.77 | 0.727 | 0.95 | 1.03 | 1.09 | 0.895 | 0.974
NCI-H2009 | 1.06 | 1.05 | 1.07 | 1.05 | 1.03 | 1.16 | 1.19 | 1.21 | 1.2 | 1.17 | 1.24 | 1.12 | 1.12 | 1.19 | 1.14 | 0.647 | 0.649 | 0.632 | 0.578 | 0.594
NCI-H2023 | 0.712 | 0.655 | 0.713 | 0.713 | 1.07 | 0.714 | 0.658 | 0.664 | 0.757 | 0.746 | 0.593 | 0.576 | 0.616 | 0.602 | 0.571 | 0.53 | 0.48 | 0.493 | 0.418 | 0.46
NCI-H2085 | 0.86 | 0.909 | 0.93 | 0.892 | 0.948 | 0.911 | 0.787 | 0.982 | 0.823 | 0.793 | 1.05 | 0.915 | 0.991 | 0.879 | 0.832 | 0.717 | 0.692 | 0.728 | 0.777 | 0.72
NCI-H2087 | 0.897 | 0.898 | 0.921 | 0.809 | 0.846 | 1.08 | 1.01 | 1.08 | 0.795 | 0.754 | 1.01 | 0.881 | 1.05 | 0.805 | 0.809 | 0.791 | 0.542 | 0.623 | 0.522 | 0.423
NCI-H2126 | 1.01 | 1 | 0.959 | 1.01 | 1.1 | 0.666 | 0.696 | 0.725 | 0.614 | 0.733 | 0.74 | 0.756 | 0.722 | 0.639 | 0.745 | 0.913 | 0.877 | 0.856 | 0.927 | 0.901
NCI-H2228 | 0.474 | 0.586 | 0.417 | 0.428 | 0.524 | 0.343 | 0.629 | 0.814 | 0.576 | 0.689 | 0.726 | 0.931 | 0.805 | 0.651 | 0.675 | – | 0.608 | 0.551 | 0.658 | 0.488
